Experimental findings from PMC10982999, “Structure-Guided Design and Optimization of Covalent VHL-Targeted Sulfonyl Fluoride PROTACs” (Journal of Medicinal Chemistry, 2024) are described below.

For orientation: Dmax means the largest share of the target that was removed. In general, DC50 refers to the midpoint of the concentration-degradation curve.

Read-outs that look alike come from different tables or passages of the source.

Series [1] concerns the target T1, BRD4 (HEK293 HiBiT-BRD4 Cln3 cells) (Homo sapiens, UniProt O60885).
T1 construct: GSK; host or cells: HEK293 HiBiT-BRD4 Cln3
The series is classed as cell-based. As to conditions: 5 h treatment, PBS washing, 24 h recovery with excess VH032 (50 μM) vs standard treatment 29 h; from AUC of residual BRD4 long isoform.
Protocol: To further investigate the potential advantage of a covalent VHL ligand, we performed a head-to-head comparison of BRD-SF2 and MZ-1 in a washout experiment.
BRD4 and loading control Tubulin levels were visualized by Western blotting. […] BRD4 and loading control Tubulin levels were visualized by Western blotting.
with BRD-SF2 and MZ1, followed by 3 cycles of PBS wash, where media was aspirated, and
PBS used to gently wash the cells before allowing 24 h recovery incubation in DMEM media
The control plate was run as
described above, but no washout was applied making the total incubation time 29 h (5 h + 24
h). The assay was performed and analysed as described above.

The subject of a further series is BRD4-HiBiT HEK293T cells. As to conditions: 18 h, 70-0.01 μM.
In series [2] the target is T1, BRD4 (HEK293 HiBiT-BRD4 Cln3 cells). The series is described as follows: BRD4 HiBiT degradation assay. The series is classed as cell-based. How it is done: Figure 3 (A) Structure of BRD-SF2. […] BRD4 and loading control GAPDH levels were visualized by Western blotting. […] (D) HEK293 HiBiT-BRD4 Cln3 cells were treated with epoxomicin (1 μM) for 3 h, followed by the respective PROTAC or VHL-SF2 dose-dependently (75–0.01 μM) for 18 h. […] (E) HEK293 HiBiT-BRD4 Cln3 cells were treated with MLN4924 (1 μM) for 3 h, followed by the respective PROTAC or VHL-SF2 dose-dependently (75–0.01 μM) for 18 h. […] (F) Structure of AR-VHL-SF2 and AR2-VHL-SF2. […] The data the show mean ± SEM (n = 3).
Cellular BRD4/AR HiBiT assay
The HiBiT tagged cells were seeded at 10,000 cells per well in a 384-well plate (Thermo Scientific, 164610) at 25 µL per well in DMEM media containing 10% FBS and incubated overnight. Compounds were dispensed using D300e Digital Dispenser (HP) and normalized to 0.1% DMSO. Cells were pre-treated with Epoxomicin or MLN4924 for 3 h before treatment or directly with the PROTAC degraders for 18 or 24 h. Nano -Glo HiBiT lytic detection assay was performed as described in the manufacturer protocol (Promega). 25 µL of premixed detection reagent was added to each well of the 384 well assay plate and incubated for 15 min on an orbital shaker (at 600 RPM), and luminescence was read using a PHERAstar FS plate reader (BMG Labtech). Corresponding background RLU values were subtracted from DMSO control values and the percentage of protein (%) of were then calculated against […]
DMSO-treated controls. […]
For orientation: HiBiT is a short tag that completes a luciferase, so light tracks the accessible tagged protein.

Series [3] has as its target T2, endogenous BRD4 in HEK293 cells (Homo sapiens, UniProt O60885).
T2 construct: endogenous in cells; host or cells: HEK293
The series can be described thus: Endogenous BRD4 degradation, Western blot. The note with it: 18 h, read-out: BRD4 long isoform Dmax. The series is classed as cell-based.

The next series addresses T3, VCB protein (Homo sapiens, UniProt P40337).
T3 construct: human VHL (UniPort entry P40337, residues 1 -213); 6xHis followed by TEV site (N, cleaved yes); made in house; host or cells: E. coli One Shot BL21(DE3)
The series can be described thus: Gel-based labelling of VHL (Neutravidin HRP blot). In kind it is binding. The note with it: 2 h at room temperature, 1-100 µM probe. As for the experimental part: (§1) To assess the ability of VHL-SF1 to covalently modify VHL, we initially developed a streptavidin shift assay in which we exposed recombinant human VCB, a stable complex of VHL protein with elongin C and elongin B, to VHL-SF1-Biotin. VHL biotinylation could then be directly quantified by the apparent shift in molecular weight observed when the sample was mixed with streptavidin and analyzed by an anti-VHL Western blot (Figure S2).[20] Through this assay, we concluded that 10 μM VHL-SF1-Biotin modified 32% VHL following 2 h of incubation at room temperature, which was further confirmed to be concentration-dependent with respect to the probe (Figure S3).
Figure S3. (A) Gel-based VHL labelling of VHL-SF1-Biotin, and (B) VHL-SF2-Biotin. […]
Figure S4. Dose-response of VHL-SF1 following a 2 h pre-incubation in the presence of VCB and FAM-conjugated HIF1α-derived peptide, assessed by fluorescence polarization. […]
VCB (11.1 mg/ mL) was diluted with PBS pH 7.4 (2 µg/ mL). […] 10 µL of each sample was loaded onto the gel and the bands were quantified […]
HEK293T cells were plated into two 6 well plates (in 1 mL media 10% FBS low glucose media) at a cell density of 1.0 x 10^6 cells/well 24 h before treatment. […] Proteins were separated by SDS -PAGE and further analyzed by immunoblotting. […]

In series [4] the target is T4, recombinant human VCB (VHL protein with elongin C and elongin B) (Homo sapiens, UniProt P40337).
T4 construct: human VHL (UniPort entry P40337, residues 1 -213); 6xHis followed by TEV site (N, cleaved yes); made in house; host or cells: E. coli One Shot BL21(DE3)
The series can be described thus: Gel-based streptavidin shift assay (anti-VHL Western blot). The series is classed as binding. As to conditions: 10 μM probe, 2 h incubation at room temperature. How it is done: as §1
Figure S2. (A) Structure of VHL-SF-1-Biotin. (B) Structure of VHL-SF-2-Biotin. (C - E) Gel-based streptavidin shift assay of VHL-SF1-Biotin, and VHL-SF2-Biotin. VCB protein was pre-treated with DMSO, VHL-SF1-Biotin (10 μM) or VHL-SF2-Biotin (10 μM) for 2 h at room temperature prior to addition of streptavidin (10 μM, 10 min) at room temperature, after which protein was resolved on SDS-PAGE and visualised by VHL western blotting. (F) Quantification of VHL levels from western blot.
Docking analysis with Molecular Operating Environment (MOE)
Molecular modelling studies were conducted using the software Molecular Operating Environment 2019.01. […]
Background: A western blot detects proteins with antibodies after separation by electrophoresis.

As for `COCC(COC)n1c(-c2cc(C)c(=O)n(C)c2)nc2cc(C3CCN(C(=O)COCCOCCOCCNC(=O)C[C@H](NC(=O)[C@@H]4C[C@@H](S(=O)(=O)F)CN4C(=O)[C@@H](c4cc(C)no4)C(C)C)c4ccc(-c5scnc5C)cc4)CC3)ccc21` [BRD-SF2, (3R,5S)-5-(((S)-1-(4-(1-(1,3-Dimethoxypropan-2-yl)-2-(1,5-dimethyl-6-oxo-1,6-dihydropyridin-3-yl)-1H-benzo[d]imidazole-5-yl)piperidin-1-yl)-15-(4-(4-methylthiazol-5-yl)phenyl)-1,13-dioxo-3,6,9-trioxa-12-azapentadecan-15-yl)carbamoyl)-1-((R)-3-methyl-2-(3-methylisoxazol-5-yl)butanoyl)pyrrolidine-3-sulfonyl fluoride], the “relative decrease in degradation activity after washout” value in series [1] was determined as 27%. Besides, the “cytotoxicity (CellTiter-Glo)” value in the series with BRD4-HiBiT HEK293T cells is reported as “no evidence of cytotoxicity”. Besides, the Dmax in series [2] (HEK293, read-out: Dmax (BRD4 degradation)) is 60%; in series [3] it was 50%. Further, the “BRD4 depletion in presence of NEDDylation inhibitor MLN4924” value in series [2] (MLN4924 1 μM 3 h pretreatment, then compound 18 h) is recorded as “not depleted”. Besides, the “BRD4 depletion in presence of proteasome inhibitor epoxomicin” value in series [2] (epoxomicin 1 μM 3 h pretreatment, then compound 18 h) is given as “not depleted”. Further, the DC50 in series [2] (read-out: BRD4 DC50) was determined as 17 µM; in series [2] (read-out: DC50 (BRD4 degradation), 18 h incubation) it was 17.2 µM.

With “(3R,5S)-1-((S)-2-(tert-Butyl)-4,16-dioxo-20-((3aS,4R,6aR)-2-oxohexahydro-1H-thieno[3,4-d]imidazole-4-yl)-6,9,12-trioxa-3,15-diazaicosanoyl)-5-((4-(4-methylthiazol-5-yl)benzyl)carbamoyl-)pyrrolidine-3-sulfonyl fluoride [VHL-SF1-Biotin]”, the “VHL labelling with respect to probe concentration” value at VCB protein is given as “concentration-dependent”. In addition, in series [4], the “VHL modified (VHL biotinylation, streptavidin shift)” value is 32%.
